PMC5321434, “Dihydrobenz[e][1,4]oxazepin-2(3H)-ones, a new anthelmintic chemotype immobilising whipworm and reducing infectivity in vivo” (PLoS Neglected Tropical Diseases, 2017)

Test system: adult T. muris
Test: Ex vivo adult T. muris automated motility assay (primary/secondary screen at 100 μM and dose-response)
Set-up: species or system Trichuris muris
Conditions: for PRIMARY_SCREEN_MINUS_LOG_FOLD_CHANGE_MOVEMENT: primary screen; for PRIMARY_SCREEN_MINUS_LOG_FOLD_CHANGE_MOVEMENT / SECONDARY_SCREEN_MINUS_LOG_FOLD_CHANGE_MOVEMENT: adult T. muris motility; for SECONDARY_SCREEN_MINUS_LOG_FOLD_CHANGE_MOVEMENT: secondary screen
How it was run: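 Adult worms recovered from SCID mice at day 35 post-infection (200 eggs orally), one per well, in RPMI-1640 with penicillin/streptomycin and 1% DMSO. Compound at 100 μM final in primary screen, 24 h at 37 °C, 5% CO2; motility from pixel-variance imaging, dose-response by four-parameter log-logistic fit.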

[1] = combined primary and secondary screen minus log fold change in movement, adult T. muris, 100 μM
[2] = adult T. muris motility screen at 100 μM, combines primary and secondary screen minus log fold change in movement (mean where both are given)

Row | Compound | COMBINED_SCREEN_ACTIVITY [1] | PRIMARY_SCREEN_MINUS_LOG_FOLD_CHANGE_MOVEMENT (100 μM) | SECONDARY_SCREEN_MINUS_LOG_FOLD_CHANGE_MOVEMENT (100 μM) | COMBINED_SCREEN_ACTIVITY [2]
1 | COc1cc(F)ccc1-c1ccc2c(c1)COCC(=O)N2CCc1ccccc1 [Compound 144] | -1.769 | -1.769 |  | 
2 | COc1ccc(F)cc1-c1ccc2c(c1)COCC(=O)N2CCc1ccccc1 [Compound 145] | -1.739 | -1.739 |  | 
3 | COc1cc(F)ccc1-c1ccc2c(c1)N(CCc1ccccc1)C(=O)COC2 [Compound 146] | -0.8154 | -0.8154 |  | 
4 | COc1ccc(F)cc1-c1ccc2c(c1)N(CCc1ccccc1)C(=O)COC2 [Compound 147] | 0.4002 | 0.4002 |  | 
5 | CC(=O)Nc1cccc(-c2ccc3c(c2)N(CC2CCCCC2)C(=O)COC3)c1 [Compound 149] | 6.083 | 10.5493 | 1.617 | 
6 | COc1ccccc1-c1ccc2c(c1)COCC(=O)N2Cc1ccccc1Cl [Compound 150] | -1.328 | -1.328 |  | 
7 | COc1ccccc1-c1ccc2c(c1)N(Cc1ccccc1Cl)C(=O)COC2 [Compound 151] | -1.249 | -1.249 |  | 
8 | CC(C)c1cccc(-c2ccc3c(c2)N(CCN2CCOCC2)C(=O)COC3)c1 [Compound 152] | 5.995 | 5.995 |  | 
9 | COc1ccc(-c2ccc3c(c2)N(Cc2ccccc2Cl)C(=O)COC3)cn1 [Compound 153] | 0.2455 | 0.2455 |  | 
10 | O=C1COCc2cc(-c3cccc(CO)c3)ccc2N1Cc1cc(F)cc(F)c1 [Compound 154] | -1.197 | -1.197 |  | 
11 | COc1ccccc1-c1ccc2c(c1)COCC(=O)N2Cc1cc(F)cc(F)c1 [Compound 155] | -0.9332 | -0.9332 |  | 
12 | COc1ccc(-c2ccc3c(c2)N(Cc2cc(F)cc(F)c2)C(=O)COC3)cn1 [Compound 156] | -1.039 | -1.039 |  | 
13 | COc1ccc(-c2ccc3c(c2)N(CCN2CCOCC2)C(=O)COC3)c(C)c1 [Compound 157] | -1.37 | -1.37 |  | 
14 | COCc1cccc(-c2ccc3c(c2)N(CCN2CCOCC2)C(=O)COC3)c1 [Compound 158] | -1.5946 | -1.5946 |  | 
15 | O=C1COCc2ccc(-c3cccnc3)cc2N1Cc1ccc(C(F)(F)F)cc1 [Compound 159] | 11.6591 | 10.6993 | 12.6188 | 
16 | O=C1COCc2ccc(Br)cc2N1Cc1ccc(C(F)(F)F)cc1 [Compound 160] | 8.379 | 8.379 |  | 
17 | COc1cc(F)ccc1-c1ccc2c(c1)COCC(=O)N2CCN1CCOCC1 [Compound 161] | -1.617 | -1.617 |  | 
18 | COc1ccc(F)cc1-c1ccc2c(c1)N(CCN1CCOCC1)C(=O)COC2 [Compound 162] | -1.305 | -1.305 |  | 
19 | COc1ccc(F)cc1-c1ccc2c(c1)COCC(=O)N2CCN1CCOCC1 [Compound 163] | -0.1485 | -0.1485 |  | 
20 | CC(=O)Nc1cccc(-c2ccc3c(c2)N(CCc2ccccc2)C(=O)COC3)c1 [Compound 164] | 1.82 | 1.82 |  | 
21 | Cn1cc(-c2ccc3c(c2)COCC(=O)N3Cc2ccc(C(F)(F)F)cc2)cn1 [Compound 165] | 10.5493 | 10.5493 |  | 
22 | Cn1cc(-c2ccc3c(c2)N(Cc2ccc(C(F)(F)F)cc2)C(=O)COC3)cn1 [Compound 166] | 11.5841 | 10.5493 | 12.6188 | 
23 | O=C1COCc2ccc(-c3ccc4ccccc4c3)cc2N1CCN1CCOCC1 [Compound 167] | 3.214 | 3.214 |  | 

Row | Compound | COMBINED_SCREEN_ACTIVITY [1] | PRIMARY_SCREEN_MINUS_LOG_FOLD_CHANGE_MOVEMENT (100 μM) | SECONDARY_SCREEN_MINUS_LOG_FOLD_CHANGE_MOVEMENT (100 μM) | COMBINED_SCREEN_ACTIVITY [2]
24 | O=C1COCc2cc(-c3cccc(CO)c3)ccc2N1Cc1ccc2c(c1)OCO2 [Compound 168] | 1.914 | 1.914 |  | 
25 | COc1cccc(CN2C(=O)COCc3ccc(-c4ccc5c(c4)OCO5)cc32)c1 [Compound 169] | 0.1266 | 0.1266 |  | 
26 | COCc1cccc(-c2ccc3c(c2)COCC(=O)N3Cc2cccc(OC)c2)c1 [Compound 170] | -0.3892 | -0.3892 |  | 
27 | COc1ccc(-c2ccc3c(c2)N(CCc2ccccc2)C(=O)COC3)cc1OC [Compound 171] | 7.742 | 7.742 |  | 
28 | COCc1cccc(-c2ccc3c(c2)N(Cc2cccc(OC)c2)C(=O)COC3)c1 [Compound 172] | -0.3707 | -0.3707 |  | 
29 | O=C1COCc2ccc(-c3cnc4ccccc4c3)cc2N1CCN1CCOCC1 [Compound 173] | 0.2312 | 0.2312 |  | 
30 | O=C1COCc2cc(-c3cc(F)cc(Cl)c3)ccc2N1CCN1CCOCC1 [Compound 174] | -1.356 | -1.356 |  | 
31 | O=C1COCc2ccc(-c3ccc(F)c(Cl)c3)cc2N1CCN1CCOCC1 [Compound 175] | 0.9531 | 0.9531 |  | 
32 | O=C1COCc2ccc(-c3cc(F)cc(Cl)c3)cc2N1CCN1CCOCC1 [Compound 176] | -1.404 | -1.404 |  | 
33 | COc1cccc(CN2C(=O)COCc3cc(-c4ccc(F)cc4OC)ccc32)c1 [Compound 177] | -1.282 | -1.282 |  | 
34 | O=C(O)c1cccc(-c2ccc3c(c2)N(Cc2cc(F)cc(F)c2)C(=O)COC3)c1 [Compound 178] | -2.449 | -2.449 |  | 
35 | COCc1cccc(-c2ccc3c(c2)COCC(=O)N3Cc2cc(F)cc(F)c2)c1 [Compound 179] | 0.9799 | 0.9799 |  | 
36 | CC(C)Oc1cccc(-c2ccc3c(c2)N(CCN2CCOCC2)C(=O)COC3)c1 [Compound 180] | -1.713 | -1.713 |  | 
37 | COc1cc(F)ccc1-c1ccc2c(c1)N(Cc1cc(F)cc(F)c1)C(=O)COC2 [Compound 181] |  | -0.2325 |  | -0.2325
38 | COc1cc(F)ccc1-c1ccc2c(c1)COCC(=O)N2Cc1cc(F)cc(F)c1 [Compound 182] | -0.8244 | -0.8244 |  | 
39 | COC(=O)c1cccc(-c2ccc3c(c2)N(Cc2cccc(OC)c2)C(=O)COC3)c1 [Compound 183] |  | -1.271 |  | -1.271
40 | O=C1COCc2ccc(-c3cccc(C(F)(F)F)c3)cc2N1CCN1CCOCC1 [Compound 184] | -1.964 | -1.964 |  | 
41 | CC(=O)Nc1cccc(-c2ccc3c(c2)N(Cc2cc(F)cc(F)c2)C(=O)COC3)c1 [Compound 185] |  | 10.5493 | 2.906 | 6.728
42 | Cc1ccc(-c2ccc3c(c2)COCC(=O)N3Cc2ccc(C(=O)N(C)C)cc2)cc1C [Compound 186] |  | 10.5493 |  | 10.5493
43 | CCN(CC)C(=O)c1cccc(-c2ccc3c(c2)N(Cc2ccccc2)C(=O)COC3)c1 [Compound 187] |  | 7.09 | 12.6188 | 9.854
44 | COc1ccccc1-c1ccc2c(c1)COCC(=O)N2Cc1ccc(C(=O)N(C)C)cc1 [Compound 188] |  | 1.744 |  | 1.744
45 | CC(C)c1cccc(-c2ccc3c(c2)COCC(=O)N3Cc2ccc(C(=O)N(C)C)cc2)c1 [Compound 190] |  | 10.3993 | 11.6188 | 11.0091
